Legend:
Format in all cases: in vivo, mouse
S100A8 = assay: Microarray gene expression in brain, spleen and liver of Hsd:Athymic Nude-Foxn1nu mice (Example 7)
Experimental: (§1) Total RNA was extracted from samples using the RNeasy extraction kit (Qiagen). The quality and concentration of the RNA was analyzed using the Agilent 2100 bioanalyzer and NanoDrop™ ND-1000 (Thermo Scientific). Samples with RNA integrity number (RIN)<6.0 were discarded. Total RNA (0.5 μg) amplification and labelling with Cy3 or Cy5 was carried out using the Eberwein mRNA amplification procedure (Van Gelder et al, Proc Natl Acad Sci USA 1990, 87:1663-1667) employing the MessageAmp™ aRNA amplification kit from Ambion (Applied Biosystems) following the manufacturer's instructions with minor modifications. As hybridization controls, plant mRNAs were transcribed from a plasmid containing the Zea mays Xet (xyloglucan endo-transglycosylase) cDNA and from a plasmid containing the Zea mays Zmmyb42 cDNA, independently prepared Cy3 and Cy5 labelled aRNA from these two RNAs using the Eberwein mRNA amplification procedure (as disclosed in Cerdà et al, Gen Comp Endocrinol 2008, 156:470-481).
(§2) The Cy3- and Cy5-labelled cRNAs and spikes were combined and hybridized to the microarray described in Example 2.6 for 17 h at 60° C. using Agilent's gaskets G2534-60002, G2534A hybridization chambers and DNA Hybridization Oven G2545A, according to the manufacturer's instructions. More specifically, equal amounts of Cy3 and Cy5 labeled Xet aRNA as well as equal amounts of Cy3 and Cy5 labeled Zmmyb42 aRNA were spiked into each mixture hybridized to the array. Arrays were washed and raw data were obtained using Agilent's DNA Microarray Scanner G2505B and Feature Extraction software (v10.1). The raw fluorescence intensity data were processed using applicant's proprietary software, and consists in the following operations:
(§3) Data normalization was carried out by an improved version of the nonlinear Q-splines normalization method (Workman et al., Genome Biol 2002, 3(9):research0048.1-0048.16). Normalization results were presented graphically as MA plots, as first described by Dudoit et al (Dudoit et al, Statistica Sinica, 2002, 12:111-139). Each point corresponds to a probe of the DNA array. M values (vertical axis) are the log-differential expression ratios. A values (horizontal axis) are the log-intensities of the spots. M and A are calculated from the Cy5 and Cy3 intensity values as of each spot. The DNA Array data is normalized using an improved version of non-linear Q-Splines normalization described by Workman et al., Genome Biol 2002, 3(9):research0048.1-0048.16. This process is useful to correct the deviation of the M values from the statistical assumption that most of the spots have M=0 in MA plots. The method allows the adjustment of all M values to form a cloud centered at M=0 in all intensity ranges. The data used to calculate the normalization fitting curve is the totality of the raw measurement dataset, excluding the signals for the probes for the spiked-in plant RNA controls and negative controls. In order to be able to normalize properly the data among all the experiments, the probe-set must include an important group of genes that should have no change (M=0) in the experiment. The normalization function is then applied to all the data, including controls.
(§4) Normalized and log-transformed data were used to calculate log 2 (sample/control) and Fold Change (FC) values. No background subtraction was applied to the signal intensity values during data processing, permitting robust selection of differentially expressed genes with low expression levels at the cost of potential sub-estimation of change when intensity levels are close to the array background level.
(§5) Powered Compound 3, 4 or 5 was dissolved in a 20% solution of 2-hydroxypropyl-R-cyclodextrin in water at the appropriate concentrations, vortexed and placed in an ultrasonic bath for 5 minutes.
(§6) Hsd:Athymic Nude-Foxn1nu mice were maintained in air- and temperature-controlled cages with regular supply of water and food. A maximum of 6 mice/cage were raised. […]

S100A9 = assay: as above
Experimental: as §1, §2, §3, §4, §5, §6

TUBB2C = assay: Microarray gene expression in brain, spleen and liver of Hsd:Athymic Nude-Foxn1nu mice (Example 7), housekeeping gene
Experimental: as §1, §2, §3, §4, §5, §6

TUBB3 = assay: as above
Experimental: as §1, §2, §3, §4, §5, §6

## NC(=O)CN[C@H]1C[C@@H]1c1ccc(OCc2ccccc2)cc1 (racemic) [Compound 3, 2-(((trans)-2-(4-(benzyloxy)phenyl)cyclopropyl)amino)acetamide]
S100A8; BRAIN, S100A8, 5 mg/kg
  Hybridization signal sample_Cy5: 229.714
S100A8; BRAIN, S100A8, 5 mg/kg vs VEH
  log2 (sample/control): −0.116
S100A8; BRAIN, S100A8, 10 mg/kg
  Hybridization signal sample_Cy5: 185.235
S100A8; BRAIN, S100A8, 10 mg/kg vs VEH
  log2 (sample/control): −0.3304
S100A8; BRAIN, S100A8, 20 mg/kg
  Hybridization signal sample_Cy5: 108.854
S100A8; BRAIN, S100A8, 20 mg/kg vs VEH
  log2 (sample/control): −1.218
S100A8; BRAIN, S100A8, 40 mg/kg
  Hybridization signal sample_Cy5: 89.5415
S100A8; BRAIN, S100A8, 40 mg/kg vs VEH
  log2 (sample/control): −1.598
S100A8; LIVER, S100A8, 5 mg/kg
  Hybridization signal sample_Cy5: 250.202
S100A8; LIVER, S100A8, 5 mg/kg vs VEH
  log2 (sample/control): −1.371
S100A8; LIVER, S100A8, 10 mg/kg
  Hybridization signal sample_Cy5: 280.387
S100A8; LIVER, S100A8, 10 mg/kg vs VEH
  log2 (sample/control): −1.1185
S100A8; LIVER, S100A8, 20 mg/kg
  Hybridization signal sample_Cy5: 266.01
S100A8; LIVER, S100A8, 20 mg/kg vs VEH
  log2 (sample/control): −1.318
S100A8; LIVER, S100A8, 40 mg/kg
  Hybridization signal sample_Cy5: 161.23
S100A8; LIVER, S100A8, 40 mg/kg vs VEH
  log2 (sample/control): −2.177
S100A8; SPLEEN, S100A8, 5 mg/kg
  Hybridization signal sample_Cy5: 4533.52
S100A8; SPLEEN, S100A8, 5 mg/kg vs VEH
  log2 (sample/control): −1.181
S100A8; SPLEEN, S100A8, 10 mg/kg
  Hybridization signal sample_Cy5: 6342.81
S100A8; SPLEEN, S100A8, 10 mg/kg vs VEH
  log2 (sample/control): −0.4706
S100A8; SPLEEN, S100A8, 20 mg/kg
  Hybridization signal sample_Cy5: 7014.94
S100A8; SPLEEN, S100A8, 20 mg/kg vs VEH
  log2 (sample/control): −0.5296
S100A8; SPLEEN, S100A8, 40 mg/kg
  Hybridization signal sample_Cy5: 4802.3
S100A8; SPLEEN, S100A8, 40 mg/kg vs VEH
  log2 (sample/control): −1.65
S100A9; BRAIN, S100A9, 5 mg/kg
  Hybridization signal sample_Cy5: 756.846
S100A9; BRAIN, S100A9, 5 mg/kg vs VEH
  log2 (sample/control): 0.1106
S100A9; BRAIN, S100A9, 10 mg/kg
  Hybridization signal sample_Cy5: 465.025
S100A9; BRAIN, S100A9, 10 mg/kg vs VEH
  log2 (sample/control): −0.5589
S100A9; BRAIN, S100A9, 20 mg/kg
  Hybridization signal sample_Cy5: 268.93
S100A9; BRAIN, S100A9, 20 mg/kg vs VEH
  log2 (sample/control): −1.388
S100A9; BRAIN, S100A9, 40 mg/kg
  Hybridization signal sample_Cy5: 208.488
S100A9; BRAIN, S100A9, 40 mg/kg vs VEH
  log2 (sample/control): −1.798
S100A9; LIVER, S100A9, 5 mg/kg
  Hybridization signal sample_Cy5: 820.026
S100A9; LIVER, S100A9, 5 mg/kg vs VEH
  log2 (sample/control): −1.469
S100A9; LIVER, S100A9, 10 mg/kg
  Hybridization signal sample_Cy5: 841.06
S100A9; LIVER, S100A9, 10 mg/kg vs VEH
  log2 (sample/control): −1.41
S100A9; LIVER, S100A9, 20 mg/kg
  Hybridization signal sample_Cy5: 862.896
S100A9; LIVER, S100A9, 20 mg/kg vs VEH
  log2 (sample/control): −1.44
S100A9; LIVER, S100A9, 40 mg/kg
  Hybridization signal sample_Cy5: 412.209
S100A9; LIVER, S100A9, 40 mg/kg vs VEH
  log2 (sample/control): −2.571
S100A9; SPLEEN, S100A9, 5 mg/kg
  Hybridization signal sample_Cy5: 10802.4
S100A9; SPLEEN, S100A9, 5 mg/kg vs VEH
  log2 (sample/control): −1.213
S100A9; SPLEEN, S100A9, 10 mg/kg
  Hybridization signal sample_Cy5: 15182.8
S100A9; SPLEEN, S100A9, 10 mg/kg vs VEH
  log2 (sample/control): −0.5812
S100A9; SPLEEN, S100A9, 20 mg/kg
  Hybridization signal sample_Cy5: 15717.4
S100A9; SPLEEN, S100A9, 20 mg/kg vs VEH
  log2 (sample/control): −0.5179
S100A9; SPLEEN, S100A9, 40 mg/kg
  Hybridization signal sample_Cy5: 13461.8
S100A9; SPLEEN, S100A9, 40 mg/kg vs VEH
  log2 (sample/control): −1.719
TUBB2C; BRAIN, 5 mg/kg
  Hybridization signal sample_Cy5: 5903.12
TUBB2C; BRAIN, 5 mg/kg vs VEH
  log2 (sample/control): 0.09115
TUBB2C; BRAIN, 10 mg/kg
  Hybridization signal sample_Cy5: 6228.65
TUBB2C; BRAIN, 10 mg/kg vs VEH
  log2 (sample/control): −0.008955
TUBB2C; BRAIN, 20 mg/kg
  Hybridization signal sample_Cy5: 6935.27
TUBB2C; BRAIN, 20 mg/kg vs VEH
  log2 (sample/control): 0.07289
TUBB2C; BRAIN, 40 mg/kg
  Hybridization signal sample_Cy5: 7405.34
TUBB2C; BRAIN, 40 mg/kg vs VEH
  log2 (sample/control): 0.06328
TUBB2C; LIVER, 5 mg/kg
  Hybridization signal sample_Cy5: 2676.03
TUBB2C; LIVER, 5 mg/kg vs VEH
  log2 (sample/control): −0.1194
TUBB2C; LIVER, 10 mg/kg
  Hybridization signal sample_Cy5: 2301.43
TUBB2C; LIVER, 10 mg/kg vs VEH
  log2 (sample/control): −0.2687
TUBB2C; LIVER, 20 mg/kg
  Hybridization signal sample_Cy5: 2059.18
TUBB2C; LIVER, 20 mg/kg vs VEH
  log2 (sample/control): −0.578
TUBB2C; LIVER, 40 mg/kg
  Hybridization signal sample_Cy5: 1551.2
TUBB2C; LIVER, 40 mg/kg vs VEH
  log2 (sample/control): −0.9728
TUBB2C; SPLEEN, 5 mg/kg
  Hybridization signal sample_Cy5: 6245.92
TUBB2C; SPLEEN, 5 mg/kg vs VEH
  log2 (sample/control): −0.05272
TUBB2C; SPLEEN, 10 mg/kg
  Hybridization signal sample_Cy5: 4019.89
TUBB2C; SPLEEN, 10 mg/kg vs VEH
  log2 (sample/control): −0.4863
TUBB2C; SPLEEN, 20 mg/kg
  Hybridization signal sample_Cy5: 4597.76
TUBB2C; SPLEEN, 20 mg/kg vs VEH
  log2 (sample/control): −0.4097
TUBB2C; SPLEEN, 40 mg/kg
  Hybridization signal sample_Cy5: 8986.8
TUBB2C; SPLEEN, 40 mg/kg vs VEH
  log2 (sample/control): −0.9476
TUBB3; BRAIN, TUBB3, 5 mg/kg
  Hybridization signal sample_Cy5: 2574.04
TUBB3; BRAIN, TUBB3, 5 mg/kg vs VEH
  log2 (sample/control): −0.223
TUBB3; BRAIN, TUBB3, 10 mg/kg
  Hybridization signal sample_Cy5: 3248.86
TUBB3; BRAIN, TUBB3, 10 mg/kg vs VEH
  log2 (sample/control): −0.06283
TUBB3; BRAIN, TUBB3, 20 mg/kg
  Hybridization signal sample_Cy5: 3078.53
TUBB3; BRAIN, TUBB3, 20 mg/kg vs VEH
  log2 (sample/control): −0.0238
TUBB3; BRAIN, TUBB3, 40 mg/kg
  Hybridization signal sample_Cy5: 3573.76
TUBB3; BRAIN, TUBB3, 40 mg/kg vs VEH
  log2 (sample/control): 0.02054
TUBB3; LIVER, TUBB3, 5 mg/kg
  Hybridization signal sample_Cy5: 64.7691
TUBB3; LIVER, TUBB3, 5 mg/kg vs VEH
  log2 (sample/control): −0.09742
TUBB3; LIVER, TUBB3, 10 mg/kg
  Hybridization signal sample_Cy5: 68.7068
TUBB3; LIVER, TUBB3, 10 mg/kg vs VEH
  log2 (sample/control): 0.02345
TUBB3; LIVER, TUBB3, 20 mg/kg
  Hybridization signal sample_Cy5: 48.4567
TUBB3; LIVER, TUBB3, 20 mg/kg vs VEH
  log2 (sample/control): −0.04225
TUBB3; LIVER, TUBB3, 40 mg/kg
  Hybridization signal sample_Cy5: 46.9101
TUBB3; LIVER, TUBB3, 40 mg/kg vs VEH
  log2 (sample/control): 0.01927
TUBB3; SPLEEN, TUBB3, 5 mg/kg
  Hybridization signal sample_Cy5: 58.6845
TUBB3; SPLEEN, TUBB3, 5 mg/kg vs VEH
  log2 (sample/control): −0.02944
TUBB3; SPLEEN, TUBB3, 10 mg/kg
  Hybridization signal sample_Cy5: 52.6685
TUBB3; SPLEEN, TUBB3, 10 mg/kg vs VEH
  log2 (sample/control): −0.02259
TUBB3; SPLEEN, TUBB3, 20 mg/kg
  Hybridization signal sample_Cy5: 62.5361
TUBB3; SPLEEN, TUBB3, 20 mg/kg vs VEH
  log2 (sample/control): −0.1183
TUBB3; SPLEEN, TUBB3, 40 mg/kg
  Hybridization signal sample_Cy5: 88.3418
TUBB3; SPLEEN, TUBB3, 40 mg/kg vs VEH
  log2 (sample/control): 0.169

— patent US20180284095A1, “BIOMARKERS ASSOCIATED WITH LSD1 INHIBITORS AND USES THEREOF” (Oryzon Genomics, S.A., priority 2015, published 2018)
